Structures are written as SMILES. Activity calls are given as the source filed them. No cut-off for these calls is given here.

Data set [1] can be described thus: Cytotoxicity against human MCF7 cells assessed as cell growth inhibition after 24 hrs by MTT assay. The format is functional, cell-based. Conditions: MCF7, 24 h. For orientation: Formazan colour is commonly taken as a measure of viable cells.
Data set [2] in a line: Downregulation of Bcl2 protein expression in human MCF7 cells at antiproliferative IC50 after 24 hrs by Western blot analysis. The data set is classed as functional, cell-based. Background: A western blot detects proteins with antibodies after separation by electrophoresis.
The subject of data set [3] is MCF7. As to the kind of experiment: Induction of apoptosis in human MCF7 cells assessed as chromatin condensation at antiproliferative IC50 after 24 hrs by hoechst 33258 staining-based fluorescent microscopic analysis. The format is functional, cell-based.
For data set [4], the system named is MCF7. Description: Induction of apoptosis in human MCF7 cells assessed as increase in number of abnormal cells at antiproliferative IC50 by hoechst 33258 staining-based fluorescent microscopic analysis. The data set is classed as functional, cell-based. Conditions: TDE = time-dependent effect.
Data set [5] can be described thus: Downregulation of Bcl2 mRNA expression in human MCF7 cells assessed as Bcl2 mRNA expression level at antiproliferative IC50 after 24 hrs by RT-qPCR analysis relative to control. The format is functional, cell-based. A general note: Quantitative PCR measures a nucleic acid by following its amplification.
The nature of data set [6]: Downregulation of Bcl2 mRNA expression in human MCF7 cells assessed as Bcl2 mRNA expression level at antiproliferative IC50 after 12 hrs by RT-qPCR analysis relative to control. The data set is classed as functional, cell-based.
Data set [7] relates to MCF7. Description: Induction of apoptosis in human MCF7 cells assessed as morphological changes at antiproliferative IC50 by AO/EB dual staining-based fluorescent microscopic analysis. The data set is classed as functional, cell-based. The note with it: TDE = time-dependent effect.
The subject of data set [8] is MCF7. Description: Induction of apoptosis in human MCF7 cells assessed as fragmented nuclei at antiproliferative IC50 after 24 hrs by hoechst 33258 staining-based fluorescent microscopic analysis. The data set is classed as functional, cell-based.
Data set [9] has as its system MCF7. As to the kind of experiment: Induction of mitochondrial membrane potential loss in human MCF7 cells assessed as accumulation of cells at upper right quadrant at 14.3 uM after 48 hrs by JC-1 staining-based fluorescent microscopic analysis (reference value: 0.2 %). The format is functional.
The subject of data set [10] is MCF7. As to the kind of experiment: Induction of apoptosis in human MCF7 cells assessed as plasma membrane blebbing at antiproliferative IC50 after 48 hrs by hoechst 33258 staining-based fluorescent microscopic analysis. The data set is classed as functional, cell-based.
Data set [11] can be described thus: Hemolytic activity against human RBC at 14.36 uM after 4 hrs. The data set is classed as ADME, cell-based. The note with it: erythrocyte.
The test system of data set [12] is MCF7. Description: Induction of apoptosis in human MCF7 cells at antiproliferative IC50 assessed as late apoptotic cells after 48 hrs by AO/EB dual staining-based fluorescent microscopic analysis. The format is functional, cell-based.
Data set [13] in a line: Cytotoxicity against human A549 cells assessed as cell growth inhibition after 24 hrs by MTT assay. The data set is classed as functional, cell-based. The note with it: A549, 24 h.
Data set [14] is described as follows: Downregulation of Bcl2 mRNA expression in human MCF7 cells assessed as Bcl2 mRNA expression level at antiproliferative IC50 after 48 hrs by RT-qPCR analysis relative to control. The format is functional, cell-based.
Data set [15] concerns MCF7. Description: Induction of mitochondrial membrane potential depolarization in human MCF7 cells assessed as increase in green fluorescence at 14.3 uM after 24 to 48 hrs by JC-1 staining-based fluorescent microscopic analysis. The format is functional, cell-based.
The subject of data set [16] is MCF7. As to the kind of experiment: Induction of apoptosis in human MCF7 cells assessed as presence of apoptotic bodies at antiproliferative IC50 after 24 hrs by hoechst 33258 staining-based fluorescent microscopic analysis. The format is functional, cell-based.
Data set [17] concerns MCF7. Description: Induction of apoptosis in human MCF7 cells assessed as DNA fragmentation at antiproliferative IC50 after 24 hrs by ethidium bromide staining based agarose gel electrophoresis method. The data set is classed as functional, cell-based.
The subject of data set [18] is MCF7. As to the kind of experiment: Induction of apoptosis in human MCF7 cells assessed as early apoptotic cells at antiproliferative IC50 after 24 hrs by AO/EB dual staining-based fluorescent microscopic analysis. The data set is classed as functional, cell-based.
A short description of data set [19]: Cytotoxicity against human HeLa cells assessed as cell growth inhibition after 24 hrs by MTT assay. The data set is classed as functional, cell-based.
Data set [20] has as its system MCF7. As to the kind of experiment: Induction of mitochondrial membrane potential loss in human MCF7 cells assessed as accumulation of cells at lower right quadrant at 14.3 uM after 48 hrs by JC-1 staining-based fluorescent microscopic analysis (reference value: 0.1 %). The format is functional.
Data set [21] is described as follows: Upregulation of Bax protein expression in human MCF7 cells at antiproliferative IC50 after 24 hrs by Western blot analysis. The data set is classed as functional, cell-based.
Data set [22] has as its system MCF7. Description: Induction of apoptosis in human MCF7 cells assessed as cytoskeleton breakdown at antiproliferative IC50 after 48 hrs by hoechst 33258 staining-based fluorescent microscopic analysis. The format is functional, cell-based.
Data set [23] concerns MCF7. As to the kind of experiment: Induction of mitochondrial membrane potential loss in human MCF7 cells assessed as accumulation of cells at lower right quadrant at 26.2 uM after 48 hrs by JC-1 staining-based fluorescent microscopic analysis (reference value: 0.1 %). The data set is classed as functional.
For data set [24], the system named is MCF7. Description: Induction of mitochondrial membrane potential loss in human MCF7 cells assessed as accumulation of cells at upper right quadrant at 26.2 uM after 48 hrs by JC-1 staining-based fluorescent microscopic analysis (reference value: 0.2 %). The format is functional.
For data set [25], the system named is MCF7. As to the kind of experiment: Induction of mitochondrial membrane potential depolarization in human MCF7 cells assessed as increase in green fluorescence at 26.2 uM after 24 to 48 hrs by JC-1 staining-based fluorescent microscopic analysis. The format is functional, cell-based.
A short description of data set [26]: Hemolytic activity against human RBC at 26.2 uM after 4 hrs. The format is ADME, cell-based. Conditions: erythrocyte.
Data set [27] can be described thus: Hemolytic activity against human RBC at 28.7 uM after 4 hrs. The format is ADME, cell-based. Conditions: erythrocyte.
Data set [28] is described as follows: Hemolytic activity against human RBC at 31.2 uM after 4 hrs. The format is ADME, cell-based. The note with it: erythrocyte.

As a reminder, the IC50 is the concentration needed to halve the response being measured. Turning to `Cc1ccc(-c2nnc(NC(=O)c3cc4c(c5c3OC(C)(C)C=C5)OC(C)C(C)C4=O)s2)cc1` (stereo unspecified), the concentration for half-maximal inhibition (IC50) in data set [1] amounted to 14.3 µM; in data set [13] it was 20.2 µM; in [19], 25.2 µM. Also, the outcome (in data set [2]; in the data set on MCF7 [3]; in the data set on MCF7 [8]; in the data set with MCF7 [10]; in the data set with MCF7 [12]; with MCF7 [15]) was Active. Besides, the result (with MCF7 [16]; with MCF7 [17]; with MCF7 [18]; in [21]; with MCF7 [22]) was Active. In addition, the Activity result in the data set with MCF7 [4] was “Tde”; in [5], 46%; in data set [6] it was 82.7%; in the data set on MCF7 [7], “Tde”; with MCF7 [9], 86.3%; in data set [11] it was “Non-Toxic”. The figures for the Activity (in data set [14]; in the data set with MCF7 [20]) were 39.7% and 13.7%, respectively.
Consider `COc1cc2c(cc1OC)[C@@H]1C(=O)c3ccc4c(c3O[C@@H]1CO2)C=CC(C)(C)O4` [DEGUELIN], for which the concentration for half-maximal inhibition (IC50) in data set [1] was found to be 10.6 µM.
In the case of `CC1Oc2c(cc(C(=O)Nc3ccncc3)c3c2C=CC(C)(C)O3)C(=O)C1C` (stereo unspecified), the values for the IC50 in [1], in data set [13] and in data set [19] were 26.2 µM, 39.3 µM and 28.6 µM, respectively. Besides, the result (in [2]; in the data set on MCF7 [3]; with MCF7 [8]; in the data set with MCF7 [25]; in the data set on MCF7 [10]; in the data set on MCF7 [12]) was Active. Also, the result (in the data set on MCF7 [16]; with MCF7 [17]; in the data set on MCF7 [18]; in data set [21]; in the data set on MCF7 [22]) was Active. Also, the Activity result in the data set on MCF7 [4] was “Tde”; in data set [5] it was 64%; with MCF7 [23], 20.2%; in [6] it was 92.2%; with MCF7 [7], “Tde”; with MCF7 [24], 79.8%. Moreover, the Activity in data set [14] is 57%; in data set [26] it was “Non-Toxic”.
For `COc1cc(-c2nnc(NC(=O)c3cc4c(c5c3OC(C)(C)C=C5)OC(C)C(C)C4=O)s2)cc(OC)c1OC` (stereo unspecified), the values for the IC50 in data set [1], in data set [13] and in [19] were 70 µM, 79.3 µM and 97.8 µM, respectively.
Take `CC1Oc2c(cc(C(=O)Nc3nnc(-c4ccncc4)s3)c3c2C=CC(C)(C)O3)C(=O)C1C` (stereo unspecified): the figures for the concentration for half-maximal inhibition (IC50) in [1], in [13] and in [19] were 57.9 µM, 75 µM and 74.3 µM, respectively.
The corresponding values for `CC1Oc2c(cc(C(=O)O)c3c2C=CC(C)(C)O3)C(=O)C1C` (stereo unspecified) are 88.7 µM, 116 µM and 102 µM.
`c1ccc([C@H]2CN3CCSC3=N2)cc1` [LEVAMISOLE]: the IC50 in data set [1] is above 100 µM; in data set [13], above 100 µM; in data set [19], 96 µM.
For the compound `CC1Oc2c(cc(C(=O)Nc3nnc(-c4ccccc4)s3)c3c2C=CC(C)(C)O3)C(=O)C1C` (stereo unspecified), the figures for the concentration for half-maximal inhibition (IC50) in data set [1], in data set [13] and in data set [19] were 37.8 µM, 32.4 µM and 40.2 µM, respectively.
The corresponding values for `CC1Oc2c(cc(C(=O)Nc3nccs3)c3c2C=CC(C)(C)O3)C(=O)C1C` (stereo unspecified) are 75 µM, 64.4 µM and 84 µM.
As to `CC1Oc2c(cc(C(=O)Nc3nnc(-c4cccs4)s3)c3c2C=CC(C)(C)O3)C(=O)C1C` (stereo unspecified), the figures for the IC50 in [1], in [13] and in [19] were 78.2 µM, 74.5 µM and 92.8 µM, respectively.
In the case of `CC1Oc2c(cc(C(=O)Nc3cccnc3)c3c2C=CC(C)(C)O3)C(=O)C1C` (stereo unspecified), the half-maximal inhibitory concentration (IC50) was determined as 28.7 µM in [1], 26.9 µM in [13] and 41.2 µM in [19]. Besides, the result (in [2]; in the data set on MCF7 [3]; in the data set on MCF7 [8]; in the data set on MCF7 [10]; in the data set on MCF7 [12]; with MCF7 [16]) was Active. The result (with MCF7 [17]; in the data set with MCF7 [18]; in data set [21]; in the data set with MCF7 [22]) was Active. For the same compound, the Activity entry in the data set on MCF7 [4] is “Tde”; in the data set on MCF7 [7] it was “Tde”; in data set [27] it was “Non-Toxic”.
For `CC1Oc2c(cc(C(=O)Nc3cccc4ccccc34)c3c2C=CC(C)(C)O3)C(=O)C1C` (stereo unspecified), the half-inhibitory concentration (IC50) in [1] stood at 48.1 µM; in data set [13], 58.1 µM; in [19], 41.7 µM.
For `CC1Oc2c(cc(C(=O)Nc3nnc(-c4ccc([N+](=O)[O-])cc4)s3)c3c2C=CC(C)(C)O3)C(=O)C1C` (stereo unspecified), the IC50 in [1] worked out at 31.2 µM; in [13], 42.3 µM; in [19] it was 42.9 µM. Besides, the outcome (in data set [2]; with MCF7 [3]; with MCF7 [8]; in the data set with MCF7 [10]; with MCF7 [12]; in the data set with MCF7 [16]) was Active. In addition, the outcome (in the data set with MCF7 [17]; in the data set on MCF7 [18]; in data set [21]; in the data set with MCF7 [22]) was Active. The Activity result with MCF7 [4] was “Tde”; in [28] it was “Non-Toxic”; in the data set with MCF7 [7], “Tde”.

Values taken from ChEMBL document CHEMBL3865802, “Natural product-inspired rational design, synthesis and biological evaluation of 2,3-dihydropyrano[2,3-f]chromen-4(8H)-one based hybrids as potential mitochondrial apoptosis inducers” (Eur J Med Chem, 2016).
